Active and inactive are the calls of the source.
Key:
[1] = molecular target: Diphosphomevalonate decarboxylase (Streptococcus pneumoniae serotype 2 (strain D39 / NCTC 7466), UniProt Q9FD53); assay: diphosphomevalonate decarboxylase inhibitor confirmation – biochemical, cuvette format, coupled NADH fluorescence (AID 1028); type: functional
[2] = molecular target: Protein-tyrosine kinase 2-beta (Homo sapiens, UniProt Q14289);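 also: potency of inhibitors of PYK2 kinase phosphorylation of poly-GT substrate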
Chain of Protein-tyrosine kinase 2-beta (Q14289 whole entry, the tested form may be a part): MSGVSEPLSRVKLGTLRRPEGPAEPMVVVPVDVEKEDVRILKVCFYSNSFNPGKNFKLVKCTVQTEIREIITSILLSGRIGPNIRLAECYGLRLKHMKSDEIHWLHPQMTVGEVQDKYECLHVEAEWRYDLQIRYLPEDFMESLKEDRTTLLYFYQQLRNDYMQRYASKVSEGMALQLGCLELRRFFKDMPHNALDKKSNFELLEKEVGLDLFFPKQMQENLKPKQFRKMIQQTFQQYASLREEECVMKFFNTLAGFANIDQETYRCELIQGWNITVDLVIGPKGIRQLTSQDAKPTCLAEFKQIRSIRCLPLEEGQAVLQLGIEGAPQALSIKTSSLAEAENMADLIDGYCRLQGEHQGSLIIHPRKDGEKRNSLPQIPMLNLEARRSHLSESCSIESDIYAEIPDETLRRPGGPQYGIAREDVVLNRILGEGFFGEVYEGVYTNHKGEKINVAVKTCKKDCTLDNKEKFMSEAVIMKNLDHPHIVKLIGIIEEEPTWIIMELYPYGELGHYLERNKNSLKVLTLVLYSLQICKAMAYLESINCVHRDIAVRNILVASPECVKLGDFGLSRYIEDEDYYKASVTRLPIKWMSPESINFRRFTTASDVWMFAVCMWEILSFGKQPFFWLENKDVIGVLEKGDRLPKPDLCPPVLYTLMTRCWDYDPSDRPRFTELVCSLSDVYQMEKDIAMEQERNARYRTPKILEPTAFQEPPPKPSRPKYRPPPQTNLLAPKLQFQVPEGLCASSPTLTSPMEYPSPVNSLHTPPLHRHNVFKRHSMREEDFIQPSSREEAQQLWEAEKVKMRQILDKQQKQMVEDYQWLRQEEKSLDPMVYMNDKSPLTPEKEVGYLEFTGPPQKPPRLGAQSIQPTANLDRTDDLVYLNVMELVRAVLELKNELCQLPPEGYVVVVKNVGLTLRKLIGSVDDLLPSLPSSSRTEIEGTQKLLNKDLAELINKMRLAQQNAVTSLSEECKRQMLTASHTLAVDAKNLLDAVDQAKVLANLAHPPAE

[3] = molecular target: T1, Carboxy-terminal domain RNA polymerase II polypeptide A small phosphatase 1 (Homo sapiens, UniProt Q9GZU7); assay: CTDSP1 inhibitors, concentration-response, biochemical, absorbance readout, ultra-high-throughput screen actives (AID 540297); type: functional
T1 sequence (Q9GZU7 whole entry): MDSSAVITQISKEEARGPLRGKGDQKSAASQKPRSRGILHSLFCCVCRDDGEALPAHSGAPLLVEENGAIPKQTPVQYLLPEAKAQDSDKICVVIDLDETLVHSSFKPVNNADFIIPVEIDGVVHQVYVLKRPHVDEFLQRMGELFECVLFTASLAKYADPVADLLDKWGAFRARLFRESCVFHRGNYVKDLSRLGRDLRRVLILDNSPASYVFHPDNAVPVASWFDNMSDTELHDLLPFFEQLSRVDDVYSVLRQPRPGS

[4] = molecular target: T2, Bcl-2-related protein A1 (Mus musculus, UniProt Q07440); assay: small-molecule antagonists of Bfl-1/BH3 interaction – biochemical, TR-FRET, mouse Bfl-1, confirmation (AID 621);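 also: TR-FRET binding of GST-Bfl-1 to FITC-labelled Bid peptide via terbium antibody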
T2 sequence (Q07440 whole entry): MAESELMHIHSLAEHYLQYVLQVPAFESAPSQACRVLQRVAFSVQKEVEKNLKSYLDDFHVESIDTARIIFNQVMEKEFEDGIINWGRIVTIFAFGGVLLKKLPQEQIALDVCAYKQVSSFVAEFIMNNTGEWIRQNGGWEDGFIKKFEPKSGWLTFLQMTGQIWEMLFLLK

[5] = molecular target: T2, Bcl-2-related protein A1; assay: displacement of Bid BH3 peptide from Bfl-1 – biochemical, fluorescence polarization, FITC-Bid, mouse, primary screen (AID 432)
[6] = molecular target: Dual specificity protein phosphatase 6 (Rattus norvegicus, UniProt Q64346); assay: inhibition of rat DUSP6 enzyme activity – biochemical, in vitro, primary screen (AID 425)
Chain of Dual specificity protein phosphatase 6 (Q64346 whole entry): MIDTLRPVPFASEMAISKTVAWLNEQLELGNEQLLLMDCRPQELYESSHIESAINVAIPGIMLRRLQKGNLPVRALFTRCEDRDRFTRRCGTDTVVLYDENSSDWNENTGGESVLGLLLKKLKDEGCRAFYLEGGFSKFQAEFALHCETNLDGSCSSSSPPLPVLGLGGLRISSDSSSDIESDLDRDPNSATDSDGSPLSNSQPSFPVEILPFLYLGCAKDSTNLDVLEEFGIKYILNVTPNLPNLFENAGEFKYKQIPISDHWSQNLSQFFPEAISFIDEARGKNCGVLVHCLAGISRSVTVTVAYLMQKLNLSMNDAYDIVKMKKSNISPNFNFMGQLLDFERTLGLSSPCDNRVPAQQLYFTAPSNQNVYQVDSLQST

[7] = molecular target: Tyrosine-protein phosphatase non-receptor type 7 (Homo sapiens, UniProt P35236); assay: HePTP tyrosine phosphatase activity blockers – biochemical, absorbance, leukemia target, primary screen (AID 521); type: functional
Chain of Tyrosine-protein phosphatase non-receptor type 7 (P35236 whole entry): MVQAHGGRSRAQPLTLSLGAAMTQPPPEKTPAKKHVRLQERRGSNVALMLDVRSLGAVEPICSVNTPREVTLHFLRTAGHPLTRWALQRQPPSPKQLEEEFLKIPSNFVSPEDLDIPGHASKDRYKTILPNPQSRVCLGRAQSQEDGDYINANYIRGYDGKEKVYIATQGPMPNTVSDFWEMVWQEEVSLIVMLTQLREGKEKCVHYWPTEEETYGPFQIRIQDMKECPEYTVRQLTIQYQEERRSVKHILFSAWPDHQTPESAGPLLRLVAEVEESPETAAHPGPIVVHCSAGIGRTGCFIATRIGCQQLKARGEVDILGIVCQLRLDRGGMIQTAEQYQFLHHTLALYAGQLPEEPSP

[8] = Luminescence Cell-Based Dose Confirmation HTS to Identify Inhibitors of Polyadenylation.; type: functional
[9] = molecular target: Tyrosine-protein phosphatase non-receptor type 22 (Homo sapiens, UniProt Q9Y2R2); assay: lymphoid phosphatase LYP inhibitors – biochemical, selectivity assay for STEP inhibitor project, dose response (AID 624241); type: functional
[10] = molecular target: Dual specificity protein phosphatase 3 (Homo sapiens, UniProt P51452); assay: VHR phosphatase inhibition, dose response, selectivity assay for STEP inhibitor project, biochemical (AID 602374); type: functional; settings: read-out: IC50_Mean
[11] = molecular target: Tyrosine-protein phosphatase non-receptor type 5 (Homo sapiens, UniProt P54829); assay: PTPN5 enzyme inhibition – biochemical, fluorescence intensity, uHTS hits, confirmation (AID 602372); type: functional; settings: read-out: IC50_Mean
[12] = molecular target: Photoreceptor-specific nuclear receptor (Homo sapiens, UniProt Q9Y5X4); assay: ligands suppressing NR2E3 nuclear receptor activity – biochemical, TR-FRET, dose response (AID 463256); type: functional
Chain of Photoreceptor-specific nuclear receptor (Q9Y5X4 whole entry): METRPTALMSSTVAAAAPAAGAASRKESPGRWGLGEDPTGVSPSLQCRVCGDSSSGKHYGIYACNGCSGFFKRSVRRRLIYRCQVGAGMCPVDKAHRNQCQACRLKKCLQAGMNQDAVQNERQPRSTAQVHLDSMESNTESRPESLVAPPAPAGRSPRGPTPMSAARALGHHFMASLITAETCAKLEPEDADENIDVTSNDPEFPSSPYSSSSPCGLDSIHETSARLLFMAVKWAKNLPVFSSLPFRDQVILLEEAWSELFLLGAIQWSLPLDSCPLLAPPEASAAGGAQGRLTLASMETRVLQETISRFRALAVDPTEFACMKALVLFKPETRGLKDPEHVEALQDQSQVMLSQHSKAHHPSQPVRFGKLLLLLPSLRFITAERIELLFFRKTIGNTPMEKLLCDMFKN

[13] = molecular target: Tyrosine-protein phosphatase non-receptor type 11 (Homo sapiens, UniProt Q06124); assay: PTPN11 enzyme inhibitors – biochemical, selectivity assay for STEP inhibitor project, dose response (AID 602367); type: functional; settings: read-out: IC50_Mean
[14] = molecular target: Peroxisome proliferator-activated receptor gamma/Nuclear receptor corepressor 2 (Homo sapiens, UniProt P37231+Q9Y618); assay: Counterscreen for NR2E3 inverse agonists: TR-FRET-based biochemical high throughput dose response assay to identify inverse agonists of the interaction between peroxisome proliferator-activated receptor gamma (PPARg) and nuclear receptor co-repressor 2 (NCOR2).; type: functional
[15] = molecular target: Sphingosine 1-phosphate receptor 3 (Homo sapiens, UniProt Q99500); assay: Dose Response Cell-Based Assay for Agonists of the Sphingosine 1-Phosphate Receptor 3 (S1P3): Purchased Analogues. [Related pubchem assays: 373, 439 ]; type: functional
Chain of Sphingosine 1-phosphate receptor 3 (Q99500 whole entry): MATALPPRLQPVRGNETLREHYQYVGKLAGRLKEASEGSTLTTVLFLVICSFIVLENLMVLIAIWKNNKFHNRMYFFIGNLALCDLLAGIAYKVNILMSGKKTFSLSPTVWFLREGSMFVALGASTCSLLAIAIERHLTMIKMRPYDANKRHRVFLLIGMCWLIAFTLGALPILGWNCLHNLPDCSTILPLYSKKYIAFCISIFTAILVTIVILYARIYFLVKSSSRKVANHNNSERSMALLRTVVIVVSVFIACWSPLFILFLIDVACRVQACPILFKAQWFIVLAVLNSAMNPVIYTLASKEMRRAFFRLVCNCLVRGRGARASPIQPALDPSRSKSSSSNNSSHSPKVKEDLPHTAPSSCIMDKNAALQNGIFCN

[16] = molecular target: Sphingosine 1-phosphate receptor 2 (Homo sapiens, UniProt O95136); assay: Dose Response Cell-Based Assay for Agonists of the Sphingosine 1-Phosphate Receptor 2 (S1P2): Purchased Analogues. [Related pubchem assays: 1192, 373, 439 ]; type: functional
Chain of Sphingosine 1-phosphate receptor 2 (O95136 whole entry): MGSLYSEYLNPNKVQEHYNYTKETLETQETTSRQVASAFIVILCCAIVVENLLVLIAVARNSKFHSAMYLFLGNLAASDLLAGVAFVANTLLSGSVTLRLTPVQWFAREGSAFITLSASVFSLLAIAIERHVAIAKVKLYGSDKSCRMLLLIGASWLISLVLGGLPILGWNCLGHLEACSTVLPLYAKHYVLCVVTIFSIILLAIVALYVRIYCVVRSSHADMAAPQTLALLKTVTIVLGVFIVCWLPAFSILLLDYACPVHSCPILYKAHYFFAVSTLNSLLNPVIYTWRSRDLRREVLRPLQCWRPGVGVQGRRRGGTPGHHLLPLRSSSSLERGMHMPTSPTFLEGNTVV

[17] = molecular target: Sphingosine 1-phosphate receptor 1 (Homo sapiens, UniProt P21453); assay: Dose Response Cell-Based Assay for Agonists of the Sphingosine 1-Phosphate Receptor 1 (S1P1): Purchased Analogues. [Related pubchem assays: 1192, 373, 439 ]; type: functional
Chain of Sphingosine 1-phosphate receptor 1 (P21453 whole entry): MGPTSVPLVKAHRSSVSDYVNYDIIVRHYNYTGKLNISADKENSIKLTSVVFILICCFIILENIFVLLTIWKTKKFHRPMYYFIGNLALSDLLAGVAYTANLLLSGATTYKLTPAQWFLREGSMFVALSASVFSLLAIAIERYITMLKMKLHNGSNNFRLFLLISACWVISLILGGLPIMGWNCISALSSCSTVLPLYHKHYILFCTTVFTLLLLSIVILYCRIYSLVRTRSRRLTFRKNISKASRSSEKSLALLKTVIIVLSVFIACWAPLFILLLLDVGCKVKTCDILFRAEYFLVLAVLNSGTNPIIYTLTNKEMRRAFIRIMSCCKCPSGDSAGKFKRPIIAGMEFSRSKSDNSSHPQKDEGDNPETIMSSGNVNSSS

[18] = microbe, parasite or virus in culture; type: functional; settings: Mycobacterium tuberculosis
[19] = THP-1 cell cytotoxicity, dose response, cytotoxicity control for non-replicating M. tuberculosis project (AID 489025); type: functional
[20] = molecular target: Aryl hydrocarbon receptor (Homo sapiens, UniProt P35869); assay: Luminescence-based cell-based high throughput dose response assay for activators of the Aryl Hydrocarbon Receptor (AHR). [Related pubchem assays: 2796 (Primary screen (AHR activators in singlicate)), 2845 (Confirmation screen (AHR activators in triplicate)), 434939 (Counterscreen (PXR activators in triplicate)), 2804 (Summary (AHR activators))]; type: ADME
[21] = cells; type: functional
[22] = Vero E6 cell cytotoxicity, dose response, cytotoxicity control for non-replicating M. tuberculosis project, secondary assay (AID 492998); type: functional, VeroE6; settings: Vero C1008
[23] = molecular target: Ubiquitin carboxyl-terminal hydrolase BAP1 (Homo sapiens, UniProt Q92560); assay: inhibition of BAP1 ubiquitin hydrolase activity – biochemical, dose response (AID 714); type: functional
Chain of Ubiquitin carboxyl-terminal hydrolase BAP1 (Q92560 whole entry): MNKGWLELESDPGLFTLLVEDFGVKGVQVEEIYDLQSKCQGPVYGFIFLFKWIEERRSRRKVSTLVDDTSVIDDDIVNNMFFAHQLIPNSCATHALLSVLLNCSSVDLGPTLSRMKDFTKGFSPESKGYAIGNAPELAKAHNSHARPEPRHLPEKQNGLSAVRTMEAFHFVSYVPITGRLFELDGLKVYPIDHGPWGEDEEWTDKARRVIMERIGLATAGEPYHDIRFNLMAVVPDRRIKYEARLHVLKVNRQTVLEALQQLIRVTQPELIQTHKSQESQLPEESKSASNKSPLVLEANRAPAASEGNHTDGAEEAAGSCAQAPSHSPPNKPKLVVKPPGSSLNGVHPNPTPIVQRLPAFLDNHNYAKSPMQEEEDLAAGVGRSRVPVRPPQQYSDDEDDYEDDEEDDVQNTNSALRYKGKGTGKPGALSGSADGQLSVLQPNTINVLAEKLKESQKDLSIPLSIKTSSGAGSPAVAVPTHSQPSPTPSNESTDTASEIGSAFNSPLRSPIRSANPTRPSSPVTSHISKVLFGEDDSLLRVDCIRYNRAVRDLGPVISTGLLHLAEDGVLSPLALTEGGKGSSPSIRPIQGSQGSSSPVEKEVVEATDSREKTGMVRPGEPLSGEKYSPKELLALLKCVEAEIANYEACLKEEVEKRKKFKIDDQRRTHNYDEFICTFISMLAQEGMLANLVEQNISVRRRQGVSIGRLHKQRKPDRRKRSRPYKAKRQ

[24] = molecular target: T3, Estrogen receptor (Homo sapiens, UniProt P03372);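 also: potency for inhibiting coactivator peptide recruitment to the receptor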
T3 sequence (P03372 whole entry): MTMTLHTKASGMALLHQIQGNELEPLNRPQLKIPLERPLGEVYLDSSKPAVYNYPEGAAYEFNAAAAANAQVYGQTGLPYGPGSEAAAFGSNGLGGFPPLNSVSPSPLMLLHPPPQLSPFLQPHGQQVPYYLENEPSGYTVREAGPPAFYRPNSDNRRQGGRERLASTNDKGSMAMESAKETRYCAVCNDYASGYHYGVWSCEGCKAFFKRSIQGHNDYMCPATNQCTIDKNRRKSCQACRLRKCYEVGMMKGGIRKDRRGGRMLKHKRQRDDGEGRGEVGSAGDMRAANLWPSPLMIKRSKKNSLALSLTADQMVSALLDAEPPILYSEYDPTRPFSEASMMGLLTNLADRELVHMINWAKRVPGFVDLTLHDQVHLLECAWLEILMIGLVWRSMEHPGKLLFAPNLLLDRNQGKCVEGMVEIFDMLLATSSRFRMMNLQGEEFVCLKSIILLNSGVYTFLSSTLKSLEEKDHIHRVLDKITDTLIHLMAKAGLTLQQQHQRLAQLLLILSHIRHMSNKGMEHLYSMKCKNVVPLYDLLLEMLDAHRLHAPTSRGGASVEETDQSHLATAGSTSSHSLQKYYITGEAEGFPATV

[25] = molecular target: T4, Estrogen receptor beta (Homo sapiens, UniProt Q92731); assay: blockers of SRC-3 recruitment to ERβ – biochemical, ELISA, streptavidin-HRP readout, orthogonal assay, confirmation (AID 1060)
T4 sequence (Q92731 whole entry): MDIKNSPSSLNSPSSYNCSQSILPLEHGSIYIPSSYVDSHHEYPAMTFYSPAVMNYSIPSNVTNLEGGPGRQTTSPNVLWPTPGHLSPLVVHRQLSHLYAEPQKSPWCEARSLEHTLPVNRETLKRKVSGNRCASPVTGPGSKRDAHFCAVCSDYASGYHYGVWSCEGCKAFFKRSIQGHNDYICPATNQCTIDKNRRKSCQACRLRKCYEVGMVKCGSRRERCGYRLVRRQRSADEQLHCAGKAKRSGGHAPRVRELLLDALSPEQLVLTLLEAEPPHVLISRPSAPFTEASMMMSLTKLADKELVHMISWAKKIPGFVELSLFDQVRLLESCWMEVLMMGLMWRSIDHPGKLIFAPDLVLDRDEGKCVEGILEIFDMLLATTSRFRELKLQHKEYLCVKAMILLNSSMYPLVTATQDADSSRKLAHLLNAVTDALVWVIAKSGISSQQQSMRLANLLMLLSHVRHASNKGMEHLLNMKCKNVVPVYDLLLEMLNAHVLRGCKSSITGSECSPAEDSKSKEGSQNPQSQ

[26] = molecular target: T5, Bcl-2-like protein 10 (Homo sapiens, UniProt Q9HD36); assay: Bcl-B/TR3 peptide binding disruption – biochemical, fluorescence polarization, FITC-TR3 peptide, selectivity assay for Bfl-1 inhibitor project, primary screen (AID 748);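 also: fluorescence polarization from a fluorescein-labelled TR3 peptide binding purified Bcl-B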
T5 sequence (Q9HD36 whole entry): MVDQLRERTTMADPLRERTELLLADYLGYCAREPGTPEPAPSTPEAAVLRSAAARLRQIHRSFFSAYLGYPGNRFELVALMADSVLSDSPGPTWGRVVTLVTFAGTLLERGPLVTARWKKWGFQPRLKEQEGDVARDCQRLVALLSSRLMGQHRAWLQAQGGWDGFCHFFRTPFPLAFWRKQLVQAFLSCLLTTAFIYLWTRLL

[27] = molecular target: T4, Estrogen receptor beta
[28] = molecular target: Induced myeloid leukemia cell differentiation protein Mcl-1 (Homo sapiens, UniProt Q07820); assay: blockers of MCL1 binding to BIM peptide – biochemical, fluorescence polarization, BIM-BH3 peptide, 1536-well, dose response (AID 2217)
[29] = molecular target: Bcl-2-like protein 1 (Homo sapiens, UniProt Q07817); assay: blockers of BCLXL peptide binding – biochemical, fluorescence polarization, 1536-well, selectivity assay for MCL1 inhibitor project, dose response (AID 2218)
Chain of Bcl-2-like protein 1 (Q07817 whole entry): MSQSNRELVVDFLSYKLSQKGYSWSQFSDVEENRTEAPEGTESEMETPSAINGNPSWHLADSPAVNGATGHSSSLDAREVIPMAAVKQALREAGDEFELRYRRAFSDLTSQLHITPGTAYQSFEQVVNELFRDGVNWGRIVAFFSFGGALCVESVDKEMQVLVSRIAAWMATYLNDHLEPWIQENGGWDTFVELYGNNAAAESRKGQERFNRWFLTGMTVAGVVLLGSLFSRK

[30] = molecular target: T6, Caspase-6 (Homo sapiens, UniProt P55212); assay: inhibition of CASP6 peptide cleavage – biochemical, VEID-R110 fluorescence, cherry-pick, dose response (AID 720632)
T6 sequence (P55212 whole entry): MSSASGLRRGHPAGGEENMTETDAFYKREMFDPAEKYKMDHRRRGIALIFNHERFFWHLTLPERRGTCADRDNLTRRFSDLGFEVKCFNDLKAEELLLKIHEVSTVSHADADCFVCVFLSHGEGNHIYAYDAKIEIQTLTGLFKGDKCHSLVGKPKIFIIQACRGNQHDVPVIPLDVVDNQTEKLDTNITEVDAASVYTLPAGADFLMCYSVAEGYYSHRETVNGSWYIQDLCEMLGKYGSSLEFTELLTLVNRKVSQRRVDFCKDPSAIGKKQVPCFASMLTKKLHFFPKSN

[31] = M. tuberculosis growth inhibition, HTS (AID 449762); type: functional
[32] = molecular target: Galanin receptor type 2 (Homo sapiens, UniProt O43603); assay: Dose Response cell-based high-throughput screening assay to identify agonists of galanin receptor 2 (GALR2). [Related pubchem assays: 864 ]; type: functional

## O=C(NCc1ccco1)c1cccc(-n2sc3ccccc3c2=O)c1
[1]
  IC50: 10.5 µM (active)

## COc1ccc2nc(O)c(-c3noc(-c4ccccc4)n3)cc2c1
[2]
  IC50: > 2.57 µM (not active)
[3]
  IC50: 7.01 µM (active)
[4]
  IC50: > 100 µM (not active)
[5]
  IC50: 24.6 µM (active)
[6]
  IC50: > 10 µM (not active)
[7]
  IC50: 4.23 µM (active)

## COc1ccc(C2SCC(=O)N2c2c(C)n(C)n(-c3ccccc3)c2=O)cc1OC (stereo not drawn)
[8]
  EC50: > 120 µM (not active)

## COc1ccc(-c2ccc(NC(=O)c3ccc(Br)o3)cc2)nn1
[9]
  IC50: 74.1 µM (inactive)
[10]
  IC50: 6.6 µM (active)
[11]
  IC50: 18 µM (active)
[12]
  IC50: 3.38 µM (active)
[13]
  IC50: 4.3 µM (active)
[14]
  IC50: 4.7 µM (active)

## Cc1ccc(-c2cc(C(=O)N(C)C3CCCCC3)no2)cc1
[15]
  EC50: > 50 µM (not active)
[16]
  EC50: > 10 µM (not active)
[17]
  EC50: 0.724 µM (active)

## O=[N+]([O-])c1cc(-c2nc(-c3ccncc3)no2)cc([N+](=O)[O-])c1
[18]
  CC50: > 40 µM (active)
[19]
  CC50: 37.5 µM (active)
[20]
  EC50: 2.67 µM (active)
[21]
  IC50: 3.13 µM (active)
[22]
  CC50: > 20 µM (active)

## Cc1sc(NC(=O)CSc2nnc(-c3ccc(F)cc3)o2)c(C#N)c1C
[23]
  IC50: 10.5 µM (active)
[24]
  IC50: > 50 µM (not active)

## Cc1ccc(S(=O)(=O)N2CCCCC2)cc1C(=O)Nc1nc[nH]n1
[25]
  IC50: > 109 µM (not active)
[26]
  IC50: 27.7 µM (active)
[24]
  IC50: > 50 µM (not active)
[27]
  IC50: 8.84 µM (active)

## Nc1ccc(S(=O)(=O)Nc2nc3ccccc3o2)cc1
[28]
  IC50: > 109 µM (not active)
[29]
  IC50: > 109 µM (not active)
[30]
  AC50: 42.1 µM (active)

## Cc1cc(/C=C(/C#N)c2cccc(F)c2)c(C)n1-c1cccnc1
[31]
  IC50: > 100 µM (active)

## C=CCNC(=O)/C(C#N)=C/c1cn(-c2ccccc2)nc1-c1cccs1
[32]
  EC50: 45.4 µM (not active)

Reference: ChEMBL document CHEMBL1201862, “PubChem BioAssay data set” (2004)
